# In patent US20250041294A1, “Synergistic compositions for use in the treatment of cancer” (Sartar Therapeutics Oy, priority 2021, published 2025):
# Like-named read-outs stand apart in the source and are kept apart here.
# Tests used:
# Type in all cases: cell-based
# GIST882 cell line = test: High throughput drug sensitivity and resistance test (CellTiter-Glo, 72 hours); settings: drug combined with BAY2666605 (40 nM) minus drug alone
# Protocol: High throughput drug sensitivity and resistance test. […] In addition, same compounds were investigated together with anagrelide hydrochloride (100 nM) treatment in the PDE3A low expressing cell lines SA4 and GOT3, and with BAY2666605 (40 nM) in all PDE3A-positive cell lines GIST882, SA4 and GOT3. […] A cell viability was measured after 72 hours using CellTiter-Glo Cell Viability assay (Promega Inc.) and PHERAstar FS plate reader (BMG Labtech). The data were normalized to negative (0.01% dimethyl sulfoxide only) and positive (100 μmol/L benzethonium chloride) controls.
# (§1) A four-parameter logistic dose-response curves were estimated by using the Marquardt-Levenberg algorithm and Breeze analysis platform. Drug responses to the test compounds were measured using the drug sensitivity score (DSS). Drug synergy partners, which were common in investigated cell lines were identified as following: DSS value of a single agent was subtracted from the DSS value of anagrelide-drug combination in single cell lines. […] The analysis was repeated by using BAY2666605 as a PDE3A modulator.
# [1] = system: GIST882, GOT3 and SA4 cell lines; test: High throughput drug sensitivity and resistance test, average over cell lines (BAY2666605 combination); settings: for Average DSS (aDSS): BAY2666605 combination, average of GIST882, SA4 and GOT3, aDSS higher than 3.0 = synergy
# Protocol: (§2) Cell lines. PDE3A-positive (GIST882, SA4, and GOT3) and PDE3A-negative cell lines (93TT449, 94T778, LPS141, MLS17656-92, MLS402-91, and SW872) were cultured in RPMI Medium 1640 (Gibco) with 5-, 10- or 20% fetal bovine serum (FBS, gibco), 100 U/mL of penicillin, 100 […] and 0.03 mg/mL of L-glutamine (Pen Strep Glut, Gibco, 10378-016) in a humidified, 5% CO2 atmosphere at 37° C.
# (§3) High throughput drug sensitivity and resistance test. A sensitivity and resistance of cancer cell lines to 528 compounds were investigated in 9 cell lines (GIST882, SA4, GOT3, 93TT449, 94T778, LPS141, MLS17656-92, MLS402-91, and SW872). In addition, same compounds were investigated together with anagrelide hydrochloride (100 nM) treatment in the PDE3A low expressing cell lines SA4 and GOT3, and with BAY2666605 (40 nM) in all PDE3A-positive cell lines GIST882, SA4 and GOT3. The compounds were dissolved in 100% dimethyl sulfoxide or water and plated in 10-fold dilutions covering a 10,000-fold concentration range on flat clear bottom 384-well microplates as described in detail earlier (Pulkka O P, et al 2019). A cell viability was measured after 72 hours using CellTiter-Glo Cell Viability assay (Promega Inc.) and PHERAstar FS plate reader (BMG Labtech). The data were normalized to negative (0.01% dimethyl sulfoxide only) and positive (100 μmol/L benzethonium chloride) controls.
# as §1
# SA4 cell line = test: High throughput drug sensitivity and resistance test (CellTiter-Glo, 72 hours); settings: for SA4 cell line: DSS(combo (BAY2666605))-DSS(drug): drug combined with BAY2666605 (40 nM) minus drug alone
# Protocol: as §2, §3, §1
# GOT3 cell line = test: as above; settings: for GOT3 cell line: DSS(combo (BAY2666605))-DSS(drug): drug combined with BAY2666605 (40 nM) minus drug alone
# Protocol: as §2, §3, §1
# GOT3 and SA4 cell lines = test: High throughput drug sensitivity and resistance test, average over cell lines (anagrelide combination)
# Protocol: as §2, §3, §1
# [2] = with anagrelide (GOT3, SA4) or BAY2666605 (GIST882, GOT3, SA4)
# [3] = anagrelide combination, average of SA4 and GOT3, aDSS higher than 3.0 = synergy
# [4] = drug combined with anagrelide hydrochloride (100 nM) minus drug alone, SA4
# [5] = drug combined with anagrelide hydrochloride (100 nM) minus drug alone, GOT3
SMILES,"synergy in high-throughput screening (in words) [1, 2]",Average DSS (aDSS) (GOT3 and SA4 cell lines; [3]),SA4 cell line: DSS(combo (anagrelide))-DSS(drug) (SA4 cell line; [4]),GOT3 cell line: DSS(combo (anagrelide))-DSS(drug) (GOT3 cell line; [5]),other results
COc1ccc(C[C@H](NC(=O)[C@H](C)NC(=O)CN2CCOCC2)C(=O)N[C@@H](Cc2ccccc2)C(=O)C2(C)CO2)cc1 (stereo in doubt) [ONX-0914],synergistic,–,–,–,GIST882 cell line: DSS(combo (BAY2666605))-DSS(drug) (GIST882 cell line): 8.4; Average DSS (aDSS) [1]: 4.6; SA4 cell line: DSS(combo (BAY2666605))-DSS(drug) (SA4 cell line; SA4): 4.6; GOT3 cell line: DSS(combo (BAY2666605))-DSS(drug) (GOT3 cell line; GOT3): 0.9
CC(C)[C@@H](CS(=O)(=O)C(C)C)N1C(=O)[C@@](C)(CC(=O)O)C[C@H](c2cccc(Cl)c2)[C@H]1c1ccc(Cl)cc1 [AMG-232],synergistic,3.1,6.2,0,–
CC(C)[C@H](C(=O)Nc1ccc(C(=O)NO)cc1)c1ccccc1 [AR-42],synergistic,6.05,12.9,−0.8,–
CN(C)CCCOc1ccc(-c2ccc3ncc4c(c3c2)n(C2CCOCC2)c(=O)n4C)cn1 [AZD0156],synergistic,–,–,–,GIST882 cell line: DSS(combo (BAY2666605))-DSS(drug) (GIST882 cell line): 7.5; Average DSS (aDSS) [1]: 3.1; SA4 cell line: DSS(combo (BAY2666605))-DSS(drug) (SA4 cell line; SA4): 3; GOT3 cell line: DSS(combo (BAY2666605))-DSS(drug) (GOT3 cell line; GOT3): −1.2
CCN(CCO)CCCOc1ccc2c(Nc3cc(CC(=O)Nc4cccc(F)c4)[nH]n3)ncnc2c1 [AZD1152-HQPA],synergistic,4.65,5.9,3.4,–
N[C@@H]1CCCN(c2c(/C=C3\SC(=O)NC3=O)cccc2-c2ccccc2)C1 [AZD1208],synergistic,3.7,7.1,0.3,–
COc1ccc(-c2ccc3c(N4CCOC[C@@H]4C)nc(N4CCOC[C@@H]4C)nc3n2)cc1CO [AZD8055],synergistic,3.7,5.9,1.5,–
"O=C1CN2Cc3c(ccc(Cl)c3Cl)N=C2N1 [Anagrelide, anagrelide]",–,–,–,–,"DSS (drug sensitivity score) (SA4 cell line; Anagrelide alone, SA4): 15.4; IC50 (SA4 cell line; Anagrelide alone, SA4, cell viability 72 hours): 73.5 nM; DSS (drug sensitivity score) (GOT3 cell line; Anagrelide alone, GOT3): 9.2; IC50 (GOT3 cell line; Anagrelide alone, GOT3, cell viability 72 hours): 84.3 nM"
C[C@@]1(C(=O)Nc2ccc(F)nc2)CCCN1c1nc(Nc2cc(C3CC3)n[nH]2)c2cccn2n1 [BMS-754807],synergistic,–,–,–,GIST882 cell line: DSS(combo (BAY2666605))-DSS(drug) (GIST882 cell line): 0.7; Average DSS (aDSS) [1]: 4.2; SA4 cell line: DSS(combo (BAY2666605))-DSS(drug) (SA4 cell line; SA4): 7.5; GOT3 cell line: DSS(combo (BAY2666605))-DSS(drug) (GOT3 cell line; GOT3): 4.4
"C=C(c1ccc(C(=O)O)cc1)c1cc2c(cc1C)C(C)(C)CCC2(C)C [Bexarotene, bexarotene]",synergistic,–,–,–,GIST882 cell line: DSS(combo (BAY2666605))-DSS(drug) (GIST882 cell line): 6.3; Average DSS (aDSS) [1]: 3.9; SA4 cell line: DSS(combo (BAY2666605))-DSS(drug) (SA4 cell line; SA4): 6.4; GOT3 cell line: DSS(combo (BAY2666605))-DSS(drug) (GOT3 cell line; GOT3): −1.1
"CC(C)C[C@H](NC(=O)[C@H](Cc1ccccc1)NC(=O)c1cnccn1)B(O)O [Bortezomib, bortezomib]",–,–,–,–,GIST882 cell line: DSS(combo (BAY2666605))-DSS(drug) (GIST882 cell line): 1.7; Average DSS (aDSS) [1]: 7.8; SA4 cell line: DSS(combo (BAY2666605))-DSS(drug) (SA4 cell line; SA4): 11.2; GOT3 cell line: DSS(combo (BAY2666605))-DSS(drug) (GOT3 cell line; GOT3): 10.4
CO[C@H]1CC[C@H](N2C(=O)CNc3ncc(-c4ccc(C(C)(C)O)nc4)nc32)CC1 [CC-223],synergistic,3.2,5.6,0.8,–
COc1ccc(-c2nc(N3CCOCC3)c3sc(CN(C)c4ncc(C(=O)NO)cn4)cc3n2)cn1 [CUDC-907],synergistic,5.4,10.8,0,–
"COc1c(OCCCN2CCOCC2)ccc2c1N=C(NC(=O)c1cnc(N)nc1)N1CCN=C21 [Copanlisib, copanlisib]",synergistic,–,–,–,GIST882 cell line: DSS(combo (BAY2666605))-DSS(drug) (GIST882 cell line): 6.8; Average DSS (aDSS) [1]: 4.5; SA4 cell line: DSS(combo (BAY2666605))-DSS(drug) (SA4 cell line; SA4): 8.1; GOT3 cell line: DSS(combo (BAY2666605))-DSS(drug) (GOT3 cell line; GOT3): −1.4
CC1(C)OCCn2c1nc1c(N3CCOCC3)nc(-c3cnc(N)nc3)nc12 [GDC-0084],synergistic,3.1,3.9,2.3,–
CC(C)Oc1ccc(C(=O)N[C@H](CNC(=O)CN(C)C)Cc2ccc(-c3cn4cccc([C@H](C)O)c4n3)cc2)cc1Cl [GSK923295],synergistic,3.35,3.9,2.8,–
Cn1cc(-c2cnn3c(N)c(Br)c([C@@H]4CCCNC4)nc23)cn1 [MK-8776],–,–,–,–,Average DSS (aDSS) (GOT3 and SA4 cell lines): 3.2; synergy in high-throughput screening (in words) [1]: synergistic; SA4 cell line: DSS(combo (anagrelide))-DSS(drug) (SA4 cell line): 4.8; GOT3 cell line: DSS(combo (anagrelide))-DSS(drug) (GOT3 cell line): 1.6
"CO[C@@H]1[C@H](N(C)C(=O)c2ccccc2)C[C@H]2O[C@]1(C)n1c3ccccc3c3c4c(c5c6ccccc6n2c5c31)C(=O)NC4 [Midostaurin, midostaurin]",–,3.7,5.1,2.3,–
"CNC(=O)c1nn(C)c2c1C(C)(C)Cc1cnc(Nc3ccc(N4CCN(C)CC4)cc3)nc1-2 [Milciclib, milciclib]",synergistic,3.75,3.9,3.6,–
Nc1nccc(-c2c(-c3ccc(F)cc3)ncn2C2CCCCC2)n1 [PF-670462],synergistic,3.65,7.1,0.2,–
"C/C=C1\NC(=O)[C@H]2CSSCC/C=C/[C@H](CC(=O)N[C@H](C(C)C)C(=O)N2)OC(=O)[C@H](C(C)C)NC1=O [Romidepsin, romidepsin]",–,–,6.3,1.4,–
CN(C)C[C@@H]1CCn2cc(c3ccccc32)C2=C(C(=O)NC2=O)c2cn(c3ccccc23)CCO1 [Ruboxistaurin],synergistic,3.3,4.8,1.8,–
CC(C)(C)C[C@@H]1N[C@@H](C(=O)N[C@H]2CC[C@H](O)CC2)[C@H](c2cccc(Cl)c2F)[C@]12C(=O)Nc1cc(Cl)ccc12 [SAR405838],synergistic,3.95,7.8,0.1,–
"Nc1nc2cc(-c3ccc4ncc(C(=O)N5CCOCC5)n4c3)ccc2o1 [Serabelisib, serabelisib]",synergistic,3.85,5.8,1.9,–
"Cn1ncc(Cl)c1-c1cc(C(=O)N[C@H](CN)Cc2ccc(F)c(F)c2)oc1Cl [Uprosertib, uprosertib]",synergistic,3.6,5.4,1.8,–
CNC(=O)c1ccccc1Nc1cc(Nc2ccc(N3CCOCC3)cc2OC)ncc1C(F)(F)F [VS-4718],synergistic,4.55,5.3,3.8,–
